Entries after “also recorded” stand apart in the source; their conditions may differ. Like-named read-outs stand apart in the source and are kept apart here.
Key:
[1] = tested on: T. vaginalis strain F1623; experiment: 24 h growth and survival assay (ATP luminescence, GI50); format: cell-based, Trichomonas vaginalis; conditions: for SI (ratio of GI50 in HeLa cells over GI50 in T. vaginalis): T. vaginalis F1623 vs human HeLa cells
Protocol: The following T. vaginalis strains were used: F1623 ([50]), G3 (ATCC PRA-98), and LA1 ([25]). […] Drug susceptibility assays were performed as described previously ([23]) with several minor modifications. Briefly, 10 mM stocks of the test compounds in DMSO were serially diluted 1:3 using an Echo 650 Acoustic Liquid Handler (Beckman Coulter). Subsequently, trophozoites (5 × 10^3/well) in TYM modified media were added to the wells in 384-well plates, and cultures were incubated for 24 h at 37°C under anaerobic conditions (AnaeroPack-Anaero System; Remel). For testing in mammalian cells, the following cell lines were used: Human cervical cancer cells HeLa (ATCC CCL-2), non-transformed mouse fibroblast cell line 3T3-L1 (ATCC CL-173), normal monkey kidney epithelial cell line Vero (ATCC CCL-81), and human B lymphoma cells Raji (ATCC CCL-86). Test compounds were serially diluted (1:3) and added to mammalian cell cultures grown in 384-well plates, and cultures were incubated for 48 h at 37°C in 5% CO2, 95% air. Growth and viability of T. vaginalis and mammalian cells were determined with an ATP assay by adding the BacTiter-Glo Microbial Cell Viability Assay reagent (Promega) directly to the wells and measuring ATP-dependent luminescence in a microplate reader. […] Experiments were repeated at least three times, and the mean and SEM of the pGI50 values were calculated.

[2] = molecular target: T. vaginalis Tv20S proteasome β1 subunit (Trichomonas vaginalis, UniProt A2E7Z2); experiment: In vitro proteasome assay, Ac-RYFD-amc substrate; format: biochemical; conditions: recombinant Tv20S, mean ± SD of three experiments
Protocol: (§1) The T. vaginalis proteasome was expressed in recombinant form as previously described ([27]). Briefly, Spodoptera frugiperda cells were co-infected with three baculovirus vectors carrying the T. vaginalis genes for the 7 α-subunits, 7 β-subunits, and the Ump-1 chaperone, respectively. The resulting proteasome complex was purified from cell lysates via streptavidin column and size exclusion chromatography and stored at −80°C. Purified human c20S proteasome and recombinant human proteasome activator PA28α ([21]) were obtained from Bio-Techne and stored at −80°C. Dilutions of the test agents were transferred to 384-well plates (Greiner Bio-One) in triplicate wells using an Echo 650 Acoustic Liquid Handler (Beckman Coulter). Six replicate plates were prepared for each compound for testing with three T. vaginalis-optimized substrates and three human-optimized substrates. After dispensing, plates were sealed and stored at −20°C. The following fluorescent substrates and final substrate concentrations were used to assay subunit activities of the T. vaginalis proteasome (Tv20S) ([28]) or the human constitutive proteasome (c20S) ([19], [52]): Ac-RYFD-amc (Genscript) at 100 µM for Tv20S β1 subunit, Ac-FRSR-amc (Genscript) at 20 µM for Tv20S β2 subunit, Ac-GWYL-amc (Genscript) at 20 µM for Tv20S β5 subunit, z-LLE-amc (R&D Systems) at 80 µM for c20S β1 subunit, z-VLR-amc (AdipoGen Life Sciences) at 30 µM for c20S β2 subunit, and suc-LLVY-amc (R&D Systems) at 65 µM for c20S β5 subunit. Substrates and proteasomes were diluted in an assay buffer consisting of HEPES pH 7.5 and 1 mM DTT. For the human proteasome assays, 2 nM c20S was incubated at room temperature with 200 nM PA28α for 1 h to activate the complex prior to addition to the 384-well plates containing the substrate-inhibitor mixtures. […] Both proteasomes were added to the wells at a 1 nM final assay concentration. Fluorescence was measured over 4 h at 360 nm excitation and 460 nm emission on a Biotek Synergy HTX plate reader.

[3] = tested on: T. vaginalis Tv20S proteasome β2 subunit; experiment: In vitro proteasome assay, Ac-FRSR-amc substrate; format: biochemical, Trichomonas vaginalis; conditions: recombinant Tv20S, mean ± SD of three experiments; for IC50: read-out: Tv20S proteasome inhibition of β2 subunit (IC50)
Protocol: as §1

[4] = molecular target: T. vaginalis Tv20S proteasome β5 subunit (Trichomonas vaginalis, UniProt A2DD57+A2F716); experiment: biochemical; format: biochemical
Protocol: as §1

[5] = molecular target: T1, Human c20S proteasome β1 subunit (Homo sapiens, UniProt P28072+Q99436); experiment: In vitro proteasome assay, z-LLE-amc substrate; format: biochemical; conditions: purified human c20S with PA28α, mean ± SD; for IC50: read-out: Human c20S proteasome inhibition of β1 subunit (IC50)
T1 construct: purchased Bio-Techne
Protocol: as §1

[6] = molecular target: T2, Human c20S proteasome β2 subunit (Homo sapiens, UniProt P49720+Q99436); experiment: In vitro proteasome assay, z-VLR-amc substrate; format: biochemical; conditions: purified human c20S with PA28α, mean ± SD; for IC50: read-out: Human c20S proteasome inhibition of β2 subunit (IC50)
T2 construct: purchased Bio-Techne
Protocol: as §1

[7] = molecular target: T3, Human c20S proteasome β5 subunit (Homo sapiens, UniProt P20618+P28074); experiment: In vitro proteasome assay, suc-LLVY-amc substrate; format: biochemical; conditions: purified human c20S with PA28α, mean ± SD; for IC50: read-out: Human c20S proteasome inhibition of β5 subunit (IC50)
T3 construct: purchased Bio-Techne
Protocol: as §1

[8] = relative to parental compound 4
[9] = recombinant Tv20S, mean ± SD of three experiments, read-out: Tv20S proteasome inhibition of β5 subunit (IC50)

Sequence of T. vaginalis Tv20S proteasome β5 subunit (A2DD57 entry or part of it): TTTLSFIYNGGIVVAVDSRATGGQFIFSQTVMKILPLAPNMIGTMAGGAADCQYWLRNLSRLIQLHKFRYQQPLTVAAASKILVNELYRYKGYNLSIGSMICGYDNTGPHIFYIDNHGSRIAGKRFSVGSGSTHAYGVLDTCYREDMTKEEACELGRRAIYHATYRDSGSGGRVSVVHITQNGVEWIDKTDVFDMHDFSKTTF
Sequence of T. vaginalis Tv20S proteasome β5 subunit (A2F716 entry or part of it): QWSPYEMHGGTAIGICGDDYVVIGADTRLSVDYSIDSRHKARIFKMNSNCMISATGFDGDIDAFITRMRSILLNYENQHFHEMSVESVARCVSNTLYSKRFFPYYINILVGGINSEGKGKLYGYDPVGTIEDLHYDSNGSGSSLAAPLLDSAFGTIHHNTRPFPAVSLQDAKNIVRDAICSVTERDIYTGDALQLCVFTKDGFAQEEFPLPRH
Sequence of T. vaginalis Tv20S proteasome β1 subunit (A2E7Z2 entry or part of it): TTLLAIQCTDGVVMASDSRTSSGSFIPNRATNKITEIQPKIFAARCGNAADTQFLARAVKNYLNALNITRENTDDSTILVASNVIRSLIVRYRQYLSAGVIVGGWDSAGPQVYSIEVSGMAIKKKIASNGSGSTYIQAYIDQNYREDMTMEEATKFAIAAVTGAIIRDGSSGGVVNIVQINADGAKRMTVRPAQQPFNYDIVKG

SMILES	SI (ratio of GI50 in HeLa cells over GI50 in T. vaginalis) [1]	Tv20S proteasome inhibition of β1 subunit (IC50) [2]	Tv20S proteasome inhibition of β2 subunit (IC50) [3]	IC50 [4, 9] [nM]	Human c20S proteasome inhibition of β1 subunit (IC50) [5]	IC50 [7] [nM]	also measured
COc1ccc(C[C@H](NC(=O)[C@H](C)NC(=O)C2=C(C)c3ccccc3C2)C(=O)N[C@@H](Cc2ccccc2)C(=O)[C@@H]2CO2)cc1 [compound 66]	2.69	–	–	–	–	–	loss in selectivity [1, 8]: ~ 10 fold; reduction in activity against T. vaginalis [1, 8]: ~ 50 fold
COc1ccc(CC(NC(=O)C(C)NC(=O)OCc2ccccc2)C(=O)NC(Cc2ccccc2)C(=O)C2(C)CO2)cc1 (stereo not drawn) [compound 11]	51.3	Activation	No inhibition	4.29 ± 2.23	No inhibition	45.3 ± 4.67	Human c20S proteasome inhibition of β2 subunit (IC50) [6]: No inhibition
CC(C)C[C@H](NC(=O)[C@H](Cc1ccccc1)NC(=O)c1cnccn1)B(O)O [43 (BTZ), bortezomib, reference compound]	–	–	–	–	–	–	IC50 [3]: 30.8 ± 19.9 nM; IC50 ([4]; read-out: Tv20S proteasome inhibition of β5 subunit (IC50)): 21.6 ± 1.69 nM
C[C@@]12OC(=O)[C@]1([C@@H](O)[C@@H]1C=CCCC1)NC(=O)[C@@H]2CCCl [18 (MZB), marizomib, reference compound]	–	–	No inhibition	–	–	–	IC50 ([4]; Tv20S proteasome inhibition of β5 subunit (IC50), recombinant Tv20S, mean ± SD of three experiments): 0.88 ± 0.11 nM; IC50 [5]: 66.5 ± 11.7 nM; IC50 [6]: 46.7 ± 11.2 nM
CCCC[C@H](NC(=O)[C@H](CC(=O)N1CCCC1)NC(=O)[C@H](Cc1ccc(OC)cc1)N1CCCC1=O)C(=O)N[C@@H](Cc1ccc(F)cc1F)C(=O)[C@@]1(C)CO1 [compound 45]	–	Activation	No inhibition	82.6 ± 32.1	No inhibition	1010	Human c20S proteasome inhibition of β2 subunit (IC50) [6]: No inhibition
COc1ccc(C[C@H](NC(=O)[C@H](C)NC(=O)CN2CCOCC2)C(=O)N[C@@H](CC2CCC(C3CCCCC3)CC2)C(=O)[C@@]2(C)CO2)cc1 (stereo partly drawn) [compound 197]	< 0.71	–	–	–	–	–	–
CCCCC(=O)N[C@@H](Cc1ccc(O)cc1)C(=O)N[C@@H](CCCC)C(=O)N[C@@H](Cc1ccccc1)C(=O)[C@@]1(C)CO1 [compound 5]	–	Activation	No inhibition	2.43 ± 0.39	No inhibition	1.06 ± 0.08	IC50 [6]: 68.2 ± 13 nM
CSc1ccc(CC(=O)NC(C(=O)NC(Cc2c(F)c(F)c(F)c(F)c2F)C(=O)N[C@@H](CC(C)C)C(=O)[C@@]2(C)CO2)C(C)C)cc1 (stereo partly drawn) [compound 50]	–	Activation	No inhibition	9.25 ± 1.81	No inhibition	13.8 ± 4.21	IC50 [6]: 64.7 ± 8.19 nM
COc1ccc(C[C@H](NC(=O)[C@H](C)NC(=O)CN2CCOCC2)C(=O)N[C@@H](CC2CCC(c3ccccc3)CC2)C(=O)[C@@]2(C)CO2)cc1 (stereo partly drawn) [compound 201]	< 0.72	–	–	–	–	–	–
COc1ccc(C[C@H](NC(=O)[C@H](C)NC(=O)C2=C(C)c3ccccc3C2)C(=O)N[C@@H](Cc2ccc(-c3ccccc3)cc2)C(=O)[C@]2(C)CO2)cc1 [compound 60]	8.13	–	–	–	–	–	–
CCCCC(=O)N[C@H](Cc1c[nH]c2ccccc12)C(=O)N[C@@H](Cc1c[nH]c2ccccc12)C(=O)N[C@@H](Cc1ccccc1)C(=O)[C@]1(C)CO1 [compound 91]	–	Activation	No inhibition	2.52 ± 1.05	No inhibition	8.81 ± 0.69	–
CCCCCC(=O)N[C@H](C(=O)N[C@@H](CCS(C)(=O)=O)C(=O)N[C@@H](CC(C)C)C(=O)[C@@]1(C)CO1)C(C)C [38 (CPB), carmaphycin B, reference compound]	–	Activation	–	1.51 ± 0.69	–	7.92 ± 0.72	IC50 [3]: 440 ± 101 nM; β5 SI ratio (c20S/Tv20S) [4]: 5.25; IC50 [5]: 895 ± 510 nM; IC50 [6]: 14.6 ± 0.83 nM
COc1ccc(C[C@H](NC(=O)[C@H](C)NC(=O)CN2CCOCC2)C(=O)N[C@@H](Cc2ccc3ccccc3c2)C(=O)[C@@]2(C)CO2)cc1 [compound 35]	3.47	–	–	–	–	–	–
CC(C)CC(NC(=O)C(CC12CC3CC(CC(C3)C1)C2)NC(=O)c1cnccn1)B(O)O (stereo not drawn) [compound 32]	1.02	–	–	–	–	–	–
CCCCCC(=O)N[C@H](CC(=O)N[C@@H](CCCC)C(=O)N[C@@H](Cc1ccc(F)cc1F)C(=O)[C@@]1(C)CO1)CC(=O)OC(C)(C)C [compound 75]	–	Activation	No inhibition	172 ± 91.7	No inhibition	–	Human c20S proteasome inhibition of β2 subunit (IC50) [6]: No inhibition; Human c20S proteasome inhibition of β5 subunit (IC50) [7]: no measurable c20S β5 inhibitory activity; also recorded: No inhibition
CCCCCC(=O)N[C@@H](CO)C(=O)N[C@@H](CCCC)C(=O)N[C@@H](Cc1ccccc1)C(=O)[C@@]1(C)CO1 [compound 19]	–	Activation	No inhibition	21 ± 2.47	No inhibition	8.16 ± 1.8	IC50 [6]: 2160 nM
COc1ccc(C[C@H](NC(=O)[C@H](C)NC(=O)CN2CCOCC2)C(=O)N[C@@H](CC2CCCCC2)C(=O)[C@@]2(C)CO2)cc1 [compound 156]	0.83	–	–	–	–	–	–
CCCCCC(=O)N[C@H](CCC(=O)OC(C)(C)C)CC(=O)N[C@@H](CCCC)C(=O)N[C@@H](Cc1ccccc1)C(=O)[C@@]1(C)CO1 [compound 94]	3.16	–	–	–	–	–	growth inhibitory activity against T. vaginalis (in words) ([1]; F1623): lacked activity and selectivity

— paper PMC12691669, “Inhibitors of the 20S proteasome β5 subunit as potent and selective agents against Trichomonas vaginalis” (Antimicrobial Agents and Chemotherapy, 2025)
